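Briefly, cells in 96-well plates were exposed to five compound concentrations for 48 h, and endpoints were estimated by linear interpolation. Definition used: TGI = concentration required for complete inhibition of growth.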
Legend:
Assay in all cases: NCI anticancer screen, dose series, 48 h
HS 578T breast = system: HS 578T breast
SK-OV-3 ovarian = system: SK-OV-3 ovarian
DU-145 prostate = system: DU-145 prostate
KM20L2 colon = system: KM20L2 colon
SF-268 CNS = system: SF-268 CNS
HOP-92 NSCLC = system: HOP-92 NSCLC
SK-MEL-28 melanoma = system: SK-MEL-28 melanoma
MDA-MB-435 = system: MDA-MB-435
NCI-H226 lung = system: NCI-H226 lung
NCI-H460 lung = system: NCI-H460 lung
DLD-1 colon = system: DLD-1 colon

Compound: O=C(Nc1nn[nH]n1)c1nc(-c2ccccc2)cc(=O)[nH]1
- TGI (HS 578T breast): > 100 µM
- TGI (SK-OV-3 ovarian): > 100 µM
- TGI (DU-145 prostate): > 100 µM
- TGI (KM20L2 colon): > 100 µM
- TGI (SF-268 CNS): > 100 µM
- TGI (HOP-92 NSCLC): > 100 µM
- TGI (SK-MEL-28 melanoma): > 100 µM
- TGI (MDA-MB-435): > 100 µM
- TGI (NCI-H226 lung): > 100 µM
- TGI (NCI-H460 lung): > 100 µM
- TGI (DLD-1 colon): > 100 µM

Compound: CCN(CC)CC1CCCCN1CC(=O)N1CC(C)C(=O)Nc2ccccc21 (stereo not given)
- TGI (SK-OV-3 ovarian): > 100 µM
- TGI (KM20L2 colon): > 100 µM
- TGI (SF-268 CNS): > 100 µM
- TGI (HOP-92 NSCLC): > 100 µM
- TGI (SK-MEL-28 melanoma): > 100 µM
- TGI (NCI-H226 lung): > 100 µM
- TGI (NCI-H460 lung): > 100 µM
- TGI (DLD-1 colon): > 100 µM

Compound: CCCCN(C)/N=N/c1nc[nH]c1C(N)=O
- TGI (SK-OV-3 ovarian): > 100 µM
- TGI (KM20L2 colon): > 100 µM
- TGI (SF-268 CNS): > 100 µM
- TGI (HOP-92 NSCLC): > 100 µM
- TGI (SK-MEL-28 melanoma): > 100 µM
- TGI (NCI-H226 lung): > 100 µM
- TGI (NCI-H460 lung): > 100 µM
- TGI (DLD-1 colon): > 100 µM

Compound: CSc1cnc2ccccc2c1Sc1c[nH]c2ccccc2c1=O
- TGI (SK-OV-3 ovarian): 14.8 µM
- TGI (KM20L2 colon): 15.9 µM
- TGI (SF-268 CNS): > 100 µM
- TGI (HOP-92 NSCLC): 29.7 µM
- TGI (SK-MEL-28 melanoma): 43.5 µM
- TGI (NCI-H226 lung): 33 µM
- TGI (NCI-H460 lung): 22.8 µM
- TGI (DLD-1 colon): > 80.7 µM

Compound: Cc1c2ccncc2c(C)c2c1[nH]c1ccc(OCCN(C)C)cc12
- TGI (SK-OV-3 ovarian): 1.84 µM
- TGI (KM20L2 colon): 1.18 µM
- TGI (SF-268 CNS): 0.919 µM
- TGI (HOP-92 NSCLC): 1.62 µM
- TGI (SK-MEL-28 melanoma): 2.01 µM
- TGI (NCI-H226 lung): 0.976 µM
- TGI (NCI-H460 lung): 0.0921 µM
- TGI (DLD-1 colon): 0.718 µM

Compound: O=c1c2ccccc2nc2ccc3c(Cl)[nH][nH]c3c12
- TGI (SK-OV-3 ovarian): > 100 µM
- TGI (KM20L2 colon): > 100 µM
- TGI (SF-268 CNS): > 100 µM
- TGI (HOP-92 NSCLC): > 100 µM
- TGI (SK-MEL-28 melanoma): > 100 µM
- TGI (NCI-H226 lung): > 48.4 µM
- TGI (NCI-H460 lung): > 100 µM
- TGI (DLD-1 colon): > 100 µM

Compound: CCC(=O)OC1CCn2c1nc1c2C(=O)C(C)=C(NC(C)=O)C1=N (stereo not given)
- TGI (SK-OV-3 ovarian): 6.82 µM
- TGI (KM20L2 colon): 3.38 µM
- TGI (SF-268 CNS): 4.94 µM
- TGI (HOP-92 NSCLC): 5.15 µM
- TGI (SK-MEL-28 melanoma): 3.5 µM
- TGI (NCI-H226 lung): 4.63 µM
- TGI (NCI-H460 lung): 3 µM
- TGI (DLD-1 colon): 3.19 µM

Compound: CN(C)CC1CCC(CN(C)C)C(=O)C1=O (stereo not given)
- TGI (SK-OV-3 ovarian): 38.7 µM
- TGI (DU-145 prostate): 30.1 µM
- TGI (KM20L2 colon): 30.8 µM
- TGI (SF-268 CNS): 10.9 µM
- TGI (HOP-92 NSCLC): 3.81 µM
- TGI (SK-MEL-28 melanoma): 20.6 µM
- TGI (MDA-MB-435): 31.7 µM
- TGI (NCI-H226 lung): 10.8 µM
- TGI (NCI-H460 lung): 36.4 µM
- TGI (DLD-1 colon): 7.25 µM

Compound: O=C1C2C=CC(n3[nH]c(=O)n(Cc4ccccc4)c3=O)CC2C(=O)N1c1ccc(Br)cc1 (stereo not given)
- TGI (SK-OV-3 ovarian): > 100 µM
- TGI (KM20L2 colon): > 100 µM
- TGI (SF-268 CNS): > 100 µM
- TGI (HOP-92 NSCLC): > 100 µM
- TGI (SK-MEL-28 melanoma): > 100 µM
- TGI (NCI-H226 lung): > 100 µM
- TGI (NCI-H460 lung): > 100 µM
- TGI (DLD-1 colon): > 100 µM

Compound: COc1ccc(C)cc(=O)c1O
- TGI (SK-OV-3 ovarian): > 100 µM
- TGI (KM20L2 colon): > 100 µM
- TGI (SF-268 CNS): > 100 µM
- TGI (HOP-92 NSCLC): > 100 µM
- TGI (SK-MEL-28 melanoma): > 100 µM
- TGI (NCI-H226 lung): > 100 µM
- TGI (NCI-H460 lung): > 100 µM
- TGI (DLD-1 colon): > 100 µM
